Assay results taken from patent US4925930A, “Synthesis and anti-leukemic activity of alkyl-1-(β-D-ribofuranosyl)[1,2,4]triazole-3-carboximidates” (Nucleic Acid Research Institute, priority 1988, dated 1990).
Several values for one entry are separate records, joined by “and”; a condition that tells them apart may be missing. Equal values may be shown once. Read-outs that look alike come from different tables or passages of the source.

Assays:
murine leukemia L1210 = assay: in vivo; assay type: in vivo; conditions: for Residual Cell Population After Last Treatment: calculated from inoculum response data; for antitumor activity in vivo: summary, as per Examples 6 and 7 (L1210 and Friend leukemia)
Description: (§1) In Vivo assessments of therapeutic efficacy and host toxicity with murine leukemia L1210 were made as detailed in M. Kuehl; D. I. Brixner; A. D. Broom; T. L. Avery; R. L. Blakley, Cancer Res., 1988, 48, 1481.
(§2) ^b Treatment responses (6 mice/treatment group) presented as % T/C
(§3) ^c Calculations of residual leukemic cell populations were made using
(§4) ^a Except where otherwise indicated, all solutions were delivered ip

[1] = tested on: L1210 murine lymphocytic leukemia; assay: In vitro cytotoxicity / growth inhibition of L1210 murine lymphocytic leukemia; assay type: cell-based; conditions: for in vitro growth inhibition: L1210, in vitro cell culture; for cytotoxicity for L1210 cells: cells growing in vitro
[2] = tested on: WI-L2 human B lymphoblastic leukemia; assay: In vitro growth inhibition of WI-L2; assay type: cell-based; conditions: in vitro cell culture
Description: (§5) Compounds (4)and (5) were also tested in vitro for their capacity to inhibit the growth of L1210 murine lymphocytic leukemia, WI-L2 human B lymphoblastic leukemia, and CCRF-CEM human T lymphoblastic leukemia in vitro.

[3] = tested on: CCRF-CEM human T lymphoblastic leukemia; assay: In vitro growth inhibition of CCRF-CEM; assay type: cell-based; conditions: in vitro cell culture
Description: as §5

parainfluenza type 3 = assay type: cell-based; conditions: cell culture
adeno type 2 = assay type: cell-based; conditions: cell culture
influenza A = assay type: cell-based
rhino A = assay type: cell-based; conditions: cell culture
semliki forest = assay type: cell-based; conditions: cell culture
visna = assay type: cell-based; conditions: cell culture
[4] = tested on: herpes simplex type 2 viruses; assay type: cell-based; conditions: cell culture
viruses = assay: Cell culture antiviral activity (general statement); assay type: cell-based
Friend leukemia = conditions: for Spleen Weight / tox (in Spleen Weight column): day 1,3,5,7,9,11, ip; for Spleen Weight: control w/tumor 1538 ± 561, wo/tumor 82 ± 11; for Friend leukemia-related splenomegaly diminished: nontoxic dosing
[5] = in water; for maximum dosage which could be delivered as a single bolus (maximum soluble dosage): 0.01 ml/gram mouse weight
in vivo = assay type: in vivo; conditions: mouse, in vivo, ip, read-out: maximum non-lethal dosage
Description: as §1, §2, §3, §4

HIV = conditions: human T lymphocytes; 50 μg/mL; cited from earlier work
[6] = bid, day 1,3,5,7, 480 mg/kg, ip
[7] = qd, day 1-7, 480 mg/kg, ip, 480 mg/kg
[8] = qd, day 1, 480 mg/kg, ip, 480 mg/kg

COC(=N)c1ncn([C@@H]2O[C@H](CO)[C@@H](O)[C@H]2O)n1 [Compound (4), Methyl-1-(β-D-ribofuranosyl)[1,2,4]triazole-3-carboximidate]
Postinoculation Lifespan (% T/C) (murine leukemia L1210; [6]): 162 % T/C
Residual Cell Population After Last Treatment (murine leukemia L1210; [6]): 12 % of control
Postinoculation Lifespan (% T/C) (murine leukemia L1210; bid, day 1-7, 480 mg/kg, ip): 101 % T/C
Postinoculation Lifespan (% T/C) (murine leukemia L1210; bid, day 1, 480 mg/kg, ip): 125 % T/C
Residual Cell Population After Last Treatment (murine leukemia L1210; bid, day 1, 480 mg/kg, ip): 9 % of control
T/C (murine leukemia L1210; qd day 1, maximum soluble dosage, 480 mg/kg, repeated): ≈ 115
Postinoculation Lifespan (% T/C) (murine leukemia L1210; qd, day 1,3,5,7, 480 mg/kg, ip): 121 % T/C
Residual Cell Population After Last Treatment (murine leukemia L1210; qd, day 1,3,5,7, 480 mg/kg, ip): 46 % of control
Postinoculation Lifespan (% T/C) (murine leukemia L1210; qd, day 1,4,7, 480 mg/kg, ip): 119 % T/C
Residual Cell Population After Last Treatment (murine leukemia L1210; qd, day 1,4,7, 480 mg/kg, ip): 73 % of control
Postinoculation Lifespan (% T/C) (murine leukemia L1210; [7]): 162 % T/C and 142 % T/C
Residual Cell Population After Last Treatment (murine leukemia L1210; [7]): 12 % of control and 7 % of control
Postinoculation Lifespan (% T/C) (murine leukemia L1210; qd, day 1-7, 480 mg/kg, po): 97 % T/C
Residual Cell Population After Last Treatment (murine leukemia L1210; qd, day 1-7, 480 mg/kg, po): 139 % of control
Postinoculation Lifespan (% T/C) (murine leukemia L1210; [8]): 113 % T/C and 114 % T/C and 116 % T/C
Residual Cell Population After Last Treatment (murine leukemia L1210; [8]): 32 % of control and 30 % of control and 21 % of control
lethal toxicity (murine leukemia L1210; qid day 1, 480 mg/kg/injection): lethally toxic
Postinoculation Lifespan (% T/C) (murine leukemia L1210; qid, day 1, 480 mg/kg, ip): 60 % T/C
antitumor activity in vivo (murine leukemia L1210): significant antitumor activity in vivo
T/C (murine leukemia L1210; tid day 1, 480 mg/kg/injection): 153
leukemic cell kill (murine leukemia L1210; tid day 1, 480 mg/kg/injection): > 99%
Postinoculation Lifespan (% T/C) (murine leukemia L1210; tid, day 1,3,5,7, 480 mg/kg, ip): 76 % T/C
Postinoculation Lifespan (% T/C) (murine leukemia L1210; tid, day 1-7, 480 mg/kg, ip): 61 % T/C
Postinoculation Lifespan (% T/C) (murine leukemia L1210; tid, day 1, 480 mg/kg, ip): 153 % T/C
Residual Cell Population After Last Treatment (murine leukemia L1210; tid, day 1, 480 mg/kg, ip): 0.6 % of control
in vitro growth inhibition [1]: neither compound demonstrated in vitro growth inhibition
cytotoxicity for L1210 cells [1]: neither compound (4) nor compound (5) was cytotoxic
in vitro growth inhibition [2]: neither compound demonstrated in vitro growth inhibition
in vitro growth inhibition [3]: neither compound demonstrated in vitro growth inhibition
antiviral activity (parainfluenza type 3): inactive
antiviral activity (adeno type 2): inactive
antiviral activity (influenza A): inactive
antiviral activity (rhino A): inactive
antiviral activity (semliki forest): inactive
antiviral activity (visna): inactive
antiviral activity [4]: inactive
cell culture antiviral activity (viruses): devoid themselves of cell culture antiviral activity
Spleen Weight (Friend leukemia; bid, 288 mg/kg, P < 0.005): 150 ± 53 mg
tox (in Spleen Weight column) (Friend leukemia; bid, 480 mg/kg): tox
Friend leukemia-related splenomegaly diminished (Friend leukemia): significantly diminished
Spleen Weight (Friend leukemia; qd, 288 mg/kg, P < 0.02): 599 ± 133 mg
Spleen Weight (Friend leukemia; qd, 480 mg/kg, P < 0.01): 216 ± 60 mg
water solubility relative to biological activity [5]: limited water solubility
maximum dosage which could be delivered as a single bolus (maximum soluble dosage) [5]: 480 mg/kg

CCOC(=N)c1ncn([C@@H]2O[C@H](CO)[C@@H](O)[C@H]2O)n1 [Compound (5), Ethyl-1-(β-D-ribofuranosyl)[1,2,4]triazole-3-carboximidate]
MTD (in vivo; qd day 1): 1330 mg/kg
MTD (in vivo; qd days 1-7): 288 mg/kg
dosage/schedule dependence of anti-L1210 activity (murine leukemia L1210; mouse, in vivo): more dosage than schedule dependent
lethal toxicity for L1210-inoculated mice (murine leukemia L1210; mouse, in vivo, 3704 mg/kg): lethally toxic
therapeutic efficacy (murine leukemia L1210; qd day 1, 288 mg/kg): decline of therapeutic efficacy
leukemic cell kill (murine leukemia L1210; qd day 1, 1333 mg/kg, gauged by inoculum response data): 98.7%
T/C (murine leukemia L1210; qd day 1, maximum non-lethal dosage, 1333 mg/kg): 149
lethal toxicity (murine leukemia L1210; qd days 1-7, compared with qd day 1): lethal toxicity was produced by lower dosages
increase in mean life span (T/C) (murine leukemia L1210; qd days 1-7, maximum non-lethal dosage, 288 mg/kg): 144
Postinoculation Lifespan (% T/C) (murine leukemia L1210; qd, day 1-7, 288 mg/kg, ip): 144 % T/C
Residual Cell Population After Last Treatment (murine leukemia L1210; qd, day 1-7, 288 mg/kg, ip): 1.7 % of control
Postinoculation Lifespan (% T/C) (murine leukemia L1210; qd, day 1-7, 480 mg/kg, ip): 134 % T/C
Postinoculation Lifespan (% T/C) (murine leukemia L1210; qd, day 1-7, 800 mg/kg, ip): 70 % T/C
Postinoculation Lifespan (% T/C) (murine leukemia L1210; qd, day 1, 288 mg/kg, ip): 114 % T/C
Residual Cell Population After Last Treatment (murine leukemia L1210; qd, day 1, 288 mg/kg, ip): 27.0 % of control
Postinoculation Lifespan (% T/C) (murine leukemia L1210; qd, day 1, 480 mg/kg, ip): 149 % T/C
Residual Cell Population After Last Treatment (murine leukemia L1210; qd, day 1, 480 mg/kg, ip): 1.1 % of control
Postinoculation Lifespan (% T/C) (murine leukemia L1210; qd, day 1, 800 mg/kg, ip, 800 mg/kg): 159 % T/C and 144 % T/C
Postinoculation Lifespan (% T/C) (murine leukemia L1210; qd, day 1, 1333 mg/kg, ip): 149 % T/C
Residual Cell Population After Last Treatment (murine leukemia L1210; qd, day 1, 1333 mg/kg, ip): 1.3 % of control
Postinoculation Lifespan (% T/C) (murine leukemia L1210; qd, day 1, 2222 mg/kg, ip): 92 % T/C
Postinoculation Lifespan (% T/C) (murine leukemia L1210; qd, day 1, 3704 mg/kg, ip): 48 % T/C
antitumor activity in vivo (murine leukemia L1210): significant antitumor activity in vivo
in vitro growth inhibition [1]: neither compound demonstrated in vitro growth inhibition
cytotoxicity for L1210 cells [1]: neither compound (4) nor compound (5) was cytotoxic
in vitro growth inhibition [2]: neither compound demonstrated in vitro growth inhibition
in vitro growth inhibition [3]: neither compound demonstrated in vitro growth inhibition
antiviral activity (parainfluenza type 3): inactive
antiviral activity (adeno type 2): inactive
antiviral activity (influenza A): inactive
antiviral activity (rhino A): inactive
antiviral activity (semliki forest): inactive
antiviral activity (visna): inactive
antiviral activity [4]: inactive
cell culture antiviral activity (viruses): devoid themselves of cell culture antiviral activity
Friend leukemia-related splenomegaly diminished (Friend leukemia): not
Spleen Weight (Friend leukemia; qd, 480 mg/kg): 1257 ± 185 mg
tox (in Spleen Weight column) (Friend leukemia; qd, 800 mg/kg): tox
tox (in Spleen Weight column) (Friend leukemia; qd, 1333 mg/kg): tox
maximum dosage which could be delivered as a single bolus (maximum soluble dosage) [5]: 3704 mg/kg

NC(=O)c1ncn([C@@H]2O[C@H](CO)[C@@H](O)[C@H]2O)n1 [ribavirin, 1-(β-D-ribofuranosyl)-[1,2,4]triazole-3-carboxamide]
inhibition of HIV replication (HIV): inhibits the replication
